Data set [1] relates to formation of ET-1 from Big-ET-1. The data set can be described thus: In vivo inhibition of the Big-ET-1-induced blood pressure increase in anaesthetised rats, i.v. single dose. As to conditions: 5 min before 0.5 nmol/kg Big-ET-1, negative values indicate inhibition. Also noted: species or system Rats (Sprague-Dawley). The procedure, abridged: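 Anaesthetised (Rompun/Ketavet) Sprague-Dawley rats got test substance i.v. via jugular vein, as a rule 10 μmol/kg, or vehicle; 5 min later 0.5 nmol/kg Big-ET-1 infused over 1 min. Carotid pressure recorded every 5 min for 30 min; value is % inhibition versus vehicle of maximum Big-ET-1-induced systolic pressure rise, negative values meaning inhibition.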

The target of data set [2] is T1, soluble, human recombinant NEP (Homo sapiens, UniProt P08473).
T1 construct: soluble, human recombinant NEP; purchased Prof; Crine, University of Montreal, Canada
The data set can be described thus: In-vitro investigation of the NEP inhibitory action (fluorescence-quenched Big-ET-1 analogue, HPLC). In kind it is biochemical. The essentials: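 Enzyme preincubated with test substance 15 min at 37° C, then incubated with fluorescence-quenched Mca peptide substrate 60 min at 37° C and stopped by heating to 95° C. Cleaved and intact peptide separated by reversed-phase HPLC; unquenched Mca peak area (ex 328/em 393 nm) gave % inhibition versus no-compound control, duplicates, IC50 derived.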

Data set [3] is described as follows: Plasma protein binding, equilibrium dialysis, rat plasma. The conditions noted are these: rat plasma (10% for routine testing), 37° C., pH 7.4, 10% plasma (100% for low binders), read-out: % bound (rat plasma) (converted). In kind it is in vitro ADME. The protocol:
Plasma protein binding of the test substances of Formula I was measured using a validated equilibrium dialysis method. The dialysis cells consisted of two halves separated by a semi-permeable membrane slightly tensioned in between. […] Before being used, the membranes were re-hydrated by soaking in water followed by the dialysis buffer. Plasma (10% for routine testing, and 100% for compounds found to have a low protein binding) was heated to 37° C. and adjusted to pH 7.4 before use. 5 μM test compound solutions (final dimethylsulfoxide concentration 0.5%) were prepared in isotonic phosphate buffer containing rat or human plasma. The plasma-containing solution was on one side of the membrane, and the plasma-free on the other. Incubations were performed overnight (10% plasma assay), or for 2 hours (100% plasma assay) in triplicate. The cells were mounted in a drive unit that rotated the cells and ensured a uniform equilibrium was obtained. The equilibrium was temperature controlled by the drive unit being immersed in a water bath at 37° C. At the end of the equilibration time, the cells were emptied. The solutions for each batch of compounds were combined into two groups (plasma-free and plasma-containing) then cassette analysed by LC-MS/MS using two sets of calibration standards for plasma-free (7 points) and plasma-containing solutions (6 points). The percentage of protein bound compound was calculated as follows: [formula] PC=sample concentration in protein containing side; PF=sample concentration in protein free side;
In general terms: Equilibrium dialysis compares concentrations on both sides of a semipermeable membrane.

The mark [4] stands for this setting: Rattus norvegicus, iv, 10 μmol/kg, read-out: % substance-related inhibition of the maximum Big-ET effect on SAP vs. control.

T1 sequence (P08473 52-750 limits assumed): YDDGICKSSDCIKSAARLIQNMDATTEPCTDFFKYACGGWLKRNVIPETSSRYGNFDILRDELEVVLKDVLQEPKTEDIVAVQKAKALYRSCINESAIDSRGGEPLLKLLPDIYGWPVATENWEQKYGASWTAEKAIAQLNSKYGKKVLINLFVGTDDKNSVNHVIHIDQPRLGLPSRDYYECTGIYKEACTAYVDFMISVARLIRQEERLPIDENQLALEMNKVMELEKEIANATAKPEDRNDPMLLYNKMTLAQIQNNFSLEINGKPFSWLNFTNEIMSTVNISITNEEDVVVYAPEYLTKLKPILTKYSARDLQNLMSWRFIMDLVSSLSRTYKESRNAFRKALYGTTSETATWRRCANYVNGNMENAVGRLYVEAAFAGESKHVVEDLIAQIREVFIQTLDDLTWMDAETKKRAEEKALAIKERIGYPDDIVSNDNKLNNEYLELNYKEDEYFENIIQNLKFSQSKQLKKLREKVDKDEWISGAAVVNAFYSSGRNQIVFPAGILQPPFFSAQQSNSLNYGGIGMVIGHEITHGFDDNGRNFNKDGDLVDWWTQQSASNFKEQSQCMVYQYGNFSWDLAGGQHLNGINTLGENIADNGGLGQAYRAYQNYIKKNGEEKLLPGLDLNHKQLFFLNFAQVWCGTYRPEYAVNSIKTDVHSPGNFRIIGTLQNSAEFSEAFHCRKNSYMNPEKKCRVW

As to `CN(C)CCCN(C)C(=O)CC(CC1(C(=O)NC2CCc3ccccc3N(CC(=O)O)C2=O)CCCC1)C(=O)O` (stereo not shown) [Example 64, 2-[(1-{[1-(carboxymethyl)-2-oxo-2,3,4,5-tetrahydro-1H-1-benzazepin-3-yl]carbamoyl}cyclopentyl)methyl]-4-{[3-(dimethylamino)propyl](methyl)amino}-4-oxobutanoic acid], in data set [1] (setting [4]), the change in vivo at 10 µmol/kg is -108%. Also, the IC50 in data set [2] was 9 nM. For the same compound, the fraction unbound at 5 μM in data set [3] was 0.83.
The corresponding values for `CC(C)NC(=O)CC(CC1(C(=O)N[C@H]2CCc3ccccc3N(CC(=O)O)C2=O)CCCC1)C(=O)O` (stereo in doubt) [Example 3, (2″rel1″)-2-{[(3S)-1-({[1-(carboxymethyl)-2-oxo-2,3,4,5-tetrahydro-1H-1-benzazepin-3-yl]amino}-carbonyl)cyclopentyl]methyl}-4-(isopropylamino)-4-oxobutyric acid] are -94%, 17.9 nM and 0.31.
Consider `CCN(CCCCN)C(=O)CC(CC1(C(=O)NC2CCc3ccccc3N(CC(=O)O)C2=O)CCCC1)C(=O)O` [Example 81, (2″rel1″)-4-[(4-aminobutyl)(ethyl)amino]-2-{[1-({[(3S)-1-(carboxymethyl)-2-oxo-2,3,4,5-tetrahydro-1H-1-benzazepin-3-yl]amino}carbonyl)cyclopentyl]methyl}-4-oxobutanoic acid], for which, in data set [1] (Rattus norvegicus, iv, 0.3 μmol/kg, read-out: % substance-related inhibition of the maximum Big-ET effect on SAP vs. control), the change in vivo at 0.3 µmol/kg is -73%. Besides, the concentration for half-maximal inhibition (IC50) in data set [2] was 4 nM. The fraction unbound at 5 μM in data set [3] was 0.36.
As to “{(3S)-3-[({1-[(2″rel1″)-2-ethoxycarbonyl)-4-(isopropylamino)-4-oxobutyl]cyclopentyl}-carbonyl)amino]-2-oxo-2,3,4,5-tetrahydro-1H-1-benzazepin-1-yl}acetic acid [Example 4]”, the “% substance-related inhibition of the maximum Big-ET effect on SAP vs. control” value in data set [1] (10 μmol/kg) is given as −95%.

For orientation: IC50 means the concentration that inhibits the measured activity by half.

Source of the values: patent US20080085889A1, “Amidomethyl-Substituted 1-(Carboxyalkyl) Cyclopentyl-Carbonylamino-Benzazepine-N-Acetic Acid Compounds, Process and Intermediate Products for Their Preparation and Pharmaceutical Compositions Containing Them” (SOLVAY PHARMACEUTICALS GmbH, priority 2003, published 2008).
